How the values were obtained:
[1] = test system: metastatic uveal melanoma; test: Phase I trial: tumor response per RECIST v1.1; assay type: in vivo, human; conditions: in 68 evaluable pts
Description: (§1) A phase 1, multicenter, open-label, single-arm study of Compound I was performed in patients with metastatic uveal melanoma. A Bayesian logistic regression model, employing the escalation with overdose control principle, was used to guide the dose escalation and to estimate the maximum tolerated dose (MTD)/recommended dose for expansion (RDE). Safety was described using incidence of adverse events (AEs) by relation and severity of the AE graded according to the Common Terminology Criteria for AEs (CTCAE, v4.03). Overall response rate was defined as per Response Evaluation Criteria in Solid Tumors (RECIST, v1.1).
(§2) Patients eligible for inclusion in this study have to meet all of the following key criteria: • Metastatic uveal melanoma (histologically or cytologically confirmed) that is judged to be progressive; patients may be treatment naive or have had any number of lines of prior therapy. • Measurable disease, defined as at least one lesion that can be accurately measured in at least one dimension (longest diameter to be recorded) as >20 mm with conventional techniques or as >10 mm with CT scan. • ECOG performance status ≤1
In 68 evaluable pts, 6 had confirmed partial responses (PR) per RECIST v 1.1 (300 mg QD, 500 mg QD, 200 mg BID, 2 at 300 mg BID, 400 mg BID). A further 45 pts had stable disease as best overall response. […]

[2] = test system: phosphorylated PKC delta (pPKC delta); test: Phase I trial: target engagement in on-treatment tumor biopsies (pPKC delta); assay type: in vivo, human
Excerpt: (§3) LXS196 led to reduction of phosphorylated myristoylated, alanine-rich C kinase substrate (pMARCKS) and phosphorylated PKC delta (pPKC delta), evident of target engagement in on-treatment tumor biopsies.

[3] = test system: MP55 (GNA11mut/BAP1 null) uveal melanoma xenograft; test: Patient derived uveal melanoma xenograft model MP55; assay type: in vivo, female SCID mice
Excerpt: The anti-tumor activity and tolerability of Compound […]196) and the MDM2 inhibitor (Compound III or its salt thereof) was investigated in vivo using two patient derived uveal melanoma xenograft models, MP46 (GNAQmut) and MP55 (GNA11mut/BAP1 null). MP46 and MP55 uveal melanoma tumors were established in female SCID mice by subcutaneous implantation of 3×3×3 mm tumor fragments into the flank of each mouse. When tumors reached approximately 100 mm^3, mice were randomized according to tumor volume into treatment groups (n=8-10/group). Test agents were administered orally once (QD) or twice daily (BID) at the dose levels indicated. Tumor volumes of treatment groups are plotted from the time the treatment groups were randomized, and dosing commenced.

[4] = test system: MP46 (GNAQmut) uveal melanoma xenograft; test: Patient derived uveal melanoma xenograft model MP46; assay type: in vivo, female SCID mice; conditions: 35 days post dosing
Excerpt: The anti-tumor activity and tolerability of Compound I (i.e., LXS196) and the MDM2 inhibitor (Compound III or its salt thereof) was investigated in vivo using two patient derived uveal melanoma xenograft models, MP46 (GNAQmut) and MP55 (GNA11mut/BAP1 null).
MP46 and MP55 uveal melanoma tumors were established in female SCID mice by subcutaneous implantation of 3×3×3 mm tumor fragments into the flank of each mouse. When tumors reached approximately 100 mm^3, mice were randomized according to tumor volume into treatment groups (n=8-10/group). Test agents were administered orally once (QD) or twice daily (BID) at the dose levels indicated. Tumor volumes of treatment groups are plotted from the time the treatment groups were randomized, and dosing commenced.

[5] = Phase I trial: pharmacokinetic (PK) studies; assay type: in vivo, human
Description: as §1, §3

[6] = test system: phosphorylated myristoylated, alanine-rich C kinase substrate (pMARCKS); test: Phase I trial: target engagement in on-treatment tumor biopsies (pMARCKS); assay type: in vivo, human
Excerpt: as §3

[7] = Phase I trial of Compound I in patients with metastatic uveal melanoma: safety, DLT, MTD/RDE; assay type: in vivo
Description: as §1, §2
Patients eligible for this study must not meet any of the following criteria: • Malignant disease other than that being treated in this study • Symptomatic or untreated leptomeningeal or brain metastases or spinal cord compression. Treated brain metastases must have been stable for at least 1 month. • Impaired cardiac function or clinically significant cardiac diseases • Patients with abnormal laboratory values as defined by the protocol • Systemic anti-cancer therapy within 2 weeks of the first dose of study treatment. For cytotoxic agents that have major delayed toxicity, e.g. mitomycin C and nitrosoureas, and for anti-PD-1 or PD-L1 antibodies 4 weeks is indicated as the washout period. For patients receiving a CTLA-4 antagonist or vaccine as anticancer therapy, 6 weeks is indicated as the washout period. Patients must have recovered or stabilized from toxicities related to their previous treatment except for alopecia.
As of the data of Jun. 12, 2017, 55 patients received Compound I (i.e., LXS196) at doses ranging from 100 mg to 1000 mg once daily (QD; 38 patients or “pts”) and 200 mg to 400 mg twice daily (BID; 17 pts). Dose limiting toxicities (DLTs) were reported in 7 of 38 pts (QD schedule) and in 1 of 12 pts (BID schedule). The most common DLT was hypotension, manageable with LXS196 interruption and dose reduction. MTDs were determined at 500 mg QD and 400 mg BID. Due to better overall tolerability the RDE is 300 mg BID. Most common AEs (all grade, in ≥20% of pts) suspected related to LXS196 in pts across both schedules (n=55) were nausea (58.2%), diarrhea (32.7%), vomiting (25.5%), hypotension (25.5%), fatigue (20%) and asthenia (20%). The majority of GI and constitutional AEs were grade (gr) ½. Gr ¾ AEs suspected related to LXS196 were reported in 12 pts (21.8%), the most common being hypotension (10.9%). All other gr ¾ AEs occurred in ≤2 pts (3.6%) each.

[8] = test system: UM cell lines; conditions: with RITA and Topotecan; cited from earlier work

CC1(N)CCN(c2cccnc2NC(=O)c2nc(-c3ncccc3C(F)(F)F)cnc2N)CC1 [LXS196, 3-amino-N-(3-(4-amino-4-methylpiperidin-1-yl)pyridin-2-yl)-6-(3-(trifluoromethyl)pyridin-2-yl)pyrazine-2-carboxamide]
Stable disease as best overall response [1]: 45 pts | Confirmed partial responses (PR) per RECIST v 1.1 ([1]; 300 mg QD, 500 mg QD, 200 mg BID, 2 at 300 mg BID, 400 mg BID): 6 pts | Effect on pPKC delta [2]: reduction | T/C ([3]; MP55, 120 mg/kg BID oral): 20% | regression ([4]; MP46, 120 mg/kg BID oral): 63% | Exposure ([5]; doses above 300 mg QD and 200 mg BID): in the efficacious range from preclinical projections | half-life ([5]; human, in vivo, oral, consistent across different doses, read-out: terminal T½ (converted)): ~10 h | Tmax ([5]; human, in vivo, post dose, patients, oral): ~1 h | Effect on pMARCKS [6]: reduction | AE asthenia, all grade, suspected related ([7]; human, in vivo): 20% | AE diarrhea, all grade, suspected related ([7]; human, in vivo): 32.7% | AE fatigue, all grade, suspected related ([7]; human, in vivo): 20% | AE hypotension, all grade, suspected related ([7]; human, in vivo): 25.5% | AE nausea, all grade, suspected related ([7]; human, in vivo): 58.2% | AE vomiting, all grade, suspected related ([7]; human, in vivo): 25.5% | All other gr ¾ AEs, each, number of patients ([7]; human, in vivo): ≤ 2 pts | All other gr ¾ AEs, each, share of patients ([7]; human, in vivo): ≤ 3.6% | Gr ¾ AEs suspected related, number of patients ([7]; human, in vivo): 12 pts | Gr ¾ AEs suspected related, share of patients ([7]; human, in vivo): 21.8% | Gr ¾ hypotension (most common gr ¾ AE) ([7]; human, in vivo): 10.9% | Grade of the majority of GI and constitutional AEs ([7]; human, in vivo): grade (gr) ½ | Most common DLT ([7]; human, in vivo): hypotension | RDE (recommended dose for expansion) ([7]; human, in vivo): 300 mg BID | MTD ([7]; once daily schedule): 500 mg QD | MTD ([7]; twice daily schedule): 400 mg BID

COc1cc2c(cc1OC(C)C)[C@H](c1ccc(Cl)cc1)N(c1ccc(N(C)C[C@H]3CC[C@H](N4CCN(C)C(=O)C4)CC3)cc1)C(=O)C2 [Compound III, (S)-1-(4-chloro-phenyl)-7-isopropoxy-6-methoxy-2-(4-{methyl-[4-(4-methyl-3-oxo-piperazin-1-yl)-trans-cyclohexylmethyl]-amino}-phenyl)-1,4-dihydro-2H-isoquinolin-3-one]
T/C ([3]; MP55, 100 mg/kg QD oral): 20% | treatment/control (T/C) ([4]; MP46, 100 mg/kg QD oral): 39%

COc1ccc(C2=N[C@@H](c3ccc(Cl)cc3)[C@@H](c3ccc(Cl)cc3)N2C(=O)N2CCNC(=O)C2)c(OC(C)C)c1 [Nutlin-3]
Combination effect on growth inhibition [8]: synergistically

Reference: patent US12208097B2, “Protein kinase C inhibitors for treatment of uveal melanoma” (NOVARTIS AG, priority 2017, dated 2025)
